± gives the standard deviation of the reports.
For `*C(=O)c1ccc2c(c1)C(=O)N(c1cc(N3C(=O)c4ccc(*)cc4C3=O)cc(C(F)(F)F)c1)C2=O` (repeat unit), the glass transition temperature was 294.8 ± 1.1 °C.

Work on `*C(=O)c1ccc2c(c1)C(=O)N(c1ccc(N3C(=O)c4ccc(*)cc4C3=O)cc1)C2=O` (repeat unit) yielded a glass transition temperature of 325.00 ± 11 °C.

For `*C(=O)c1ccc2c(c1)C(=O)N(c1ccc(Oc3ccc(C(c4ccc(Oc5ccc(N6C(=O)c7ccc(*)cc7C6=O)cc5)cc4)(C(F)(F)F)C(F)(F)F)cc3)cc1)C2=O` (repeat unit), the glass transition temperature was 248.8 ± 18 °C.

With `*C(=O)c1ccc2c(c1)C(=O)N(c1cccc(S(=O)(=O)c3cccc(N4C(=O)c5ccc(*)cc5C4=O)c3)c1)C2=O` (repeat unit) the glass transition temperature was 275.50 ± 3.5 °C.

Work on `*C(=S)Nc1ccc(Oc2ccc(NC(=S)n3c(=O)c4cc5c(=O)n(*)c(=O)c5cc4c3=O)cc2)cc1` (repeat unit) yielded a glass transition temperature of 265.00 °C.

Molecule `*Oc1ccc(C2(c3ccc(Oc4ccc(C(=O)c5cccc6cccc(C(=O)c7ccc(*)cc7)c56)cc4)cc3)c3ccccc3-c3ccccc32)cc1` (repeat unit) has a glass transition temperature of 269.00 °C.

Work on `*Oc1ccc(Oc2ccc(C(=O)c3cccc4cccc(C(=O)c5ccc(*)cc5)c34)cc2)cc1` (repeat unit) yielded a glass transition temperature of 202.00 °C.

With `*Oc1ccc(Oc2ccc(C(=O)c3ccccc3-c3ccccc3C(=O)c3ccc(*)cc3)cc2)cc1` (repeat unit) the glass transition temperature was 175.00 °C.

`*c1ccc(/C=C(\C#N)c2cc(OCCCCCCCC)c(/C(C#N)=C/c3ccc(N(*)c4ccccc4)cc3)cc2OCCCCCCCC)cc1` (repeat unit) showed a glass transition temperature of 78.00 °C.

In the case of `*c1ccc(Cc2ccccc2-n2c(=O)c3cc4c(=O)n(*)c(=O)c4cc3c2=O)cc1` (repeat unit), the glass transition temperature is reported as 356.50 °C.

In the case of `*c1ccc(Oc2ccc(N3C(=O)c4ccc(Oc5ccc(C(c6ccc(Oc7ccc8c(c7)C(=O)N(*)C8=O)cc6)(C(F)(F)F)C(F)(F)F)cc5)cc4C3=O)cc2)cc1` (repeat unit), the glass transition temperature is reported as 226.50 ± 43 °C.

With `*c1ccc(Oc2ccc(N3C(=O)c4cccc(Oc5cccc6c5C(=O)N(*)C6=O)c4C3=O)cc2)cc1` (repeat unit) the glass transition temperature was 293.8 ± 1.8 °C.

With `*c1ccc(Oc2ccc(Oc3ccc(N4C(=O)c5cccc(Oc6cccc7c6C(=O)N(*)C7=O)c5C4=O)cc3)cc2)cc1` (repeat unit) the glass transition temperature was 260.50 ± 3.5 °C.

Work on `*c1ccc(Oc2ccccc2-n2c(=O)c3cc4c(=O)n(*)c(=O)c4cc3c2=O)cc1` (repeat unit) yielded a glass transition temperature of 386.00 °C.

With `*c1cccc(-c2ccc3[nH]c(S(=O)(=O)c4nc5ccc(*)cc5[nH]4)nc3c2)c1` (repeat unit) the glass transition temperature was 290.00 °C.

With `*c1cccc(P(=O)(c2cccc(-n3c(=O)c4cc5c(=O)n(*)c(=O)c5c(-c5cc(C(F)(F)F)cc(C(F)(F)F)c5)c4c3=O)c2)c2cc(C(F)(F)F)cc(C(F)(F)F)c2)c1` (repeat unit) the glass transition temperature was 280.00 °C.

`*c1cccc(P(=O)(c2cccc(-n3c(=O)c4cc5c(=O)n(*)c(=O)c5c(-c5ccccc5)c4c3=O)c2)c2cc(C(F)(F)F)cc(C(F)(F)F)c2)c1` (repeat unit) showed a glass transition temperature of 300.00 °C.

With `*c1cccc(P(=O)(c2cccc(-n3c(=O)c4cc5c(=O)n(*)c(=O)c5cc4c3=O)c2)c2cc(C(F)(F)F)cc(C(F)(F)F)c2)c1` (repeat unit) the glass transition temperature was 281.00 °C.

`*c1cccc(S(=O)(=O)c2cccc(-n3c(=O)c4cc5c(=O)n(*)c(=O)c5cc4c3=O)c2)c1` (repeat unit) gave a glass transition temperature of 360.00 °C.

Work on `*c1cnc(C2C(c3ccccc3)C(*)C2c2ccccc2)cn1` (repeat unit) yielded a glass transition temperature of 150.00 °C.

Work on `*c1nc(C)nc(N(CCCCCCN(*)c2ccccc2)c2ccccc2)n1` (repeat unit) yielded a glass transition temperature of 67.00 °C.

For `*c1nc(C)nc(N(CCCCN(*)c2ccccc2)c2ccccc2)n1` (repeat unit), the glass transition temperature was 85.00 °C.

For `*c1nnc(-c2cc(CCCCCCCC)c(-c3ccc(-c4sc(-c5nnc(-c6cc(OCCCCCCCC)c(*)cc6OCCCCCCCC)o5)cc4CCCCCCCC)s3)s2)o1` (repeat unit), the glass transition temperature was 34.10 °C.

Reference: the PolyMetriX glass transition set
